The values that follow come from PubChem BioAssay (NCI).

Holding throughout (test): NCI tumour cell line growth inhibition, 48 h
Assay [1] concerns A549 NSCLC.
Assay [2] deals with ACHN renal.
For assay [3], the system named is HCT-116 colon.
Assay [4] relates to HOP-92 NSCLC.
In assay [5] the test system is IGROV1 ovarian.
The subject of assay [6] is LOX IMVI melanoma.
Assay [7] has as its system OVCAR-5 ovarian.
Assay [8] concerns SK-MEL-5 melanoma.
Assay [9] concerns CCRF-CEM leukemia.
Assay [10] relates to KM12 colon.

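1) Cells in 96-well plates. 2) Compound, 48 h, 5 concentrations. 3) Linear interpolation between surrounding doses. 4) Unreached endpoint = highest concentration. Abbreviation: GI50, concentration required for 50% inhibition of growth. TGI denotes the concentration required for complete inhibition of growth.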

For `N#CCCN(CCC#N)c1ccc(/C=N\c2nc(-c3ccccc3)cs2)cc1`, the TGI in assay [1], in [2], in [3], in assay [4], in assay [5] and in assay [6] was over 100 µM throughout. Also, the TGI in assay [7] and in assay [8] was over 100 µM each time.

With `O=C(CC/C(CC(=O)c1ccc(Cl)cc1)=N/O)Nc1ccc(Cl)c(Cl)c1`, the TGI in [1], in [2], in assay [9], in [3], in assay [4] and in [5] was over 100 µM each time. The TGI in assay [10], in assay [7] and in assay [8] was over 100 µM in each case.

With `O=C1C2C(C(=O)N1c1ccccc1)C1(c3ccccc3)OC2(c2ccccc2)c2ccccc21` (stereo unspecified), the TGI in [1], in assay [2], in [9], in [4], in [5] and in assay [10] was over 100 µM throughout. The TGI in assay [6], in assay [7] and in assay [8] was over 100 µM throughout.

On to `Cn1c(=O)c2[nH]c(C3CC(=O)CC(c4nc5c([nH]4)c(=O)n(C)c(=O)n5C)N3)nc2n(C)c1=O` (stereo unspecified), for which the TGI in [1], in assay [2], in assay [9], in assay [3], in [5] and in assay [10] was over 100 µM each time. Besides, the TGI in assay [6], in [7] and in assay [8] was over 100 µM each time.

As for `Cn1cnc([N+](=O)[O-])c1Sc1nc2cccnc2s1`, the TGI in assay [1] was over 100 µM; in assay [2] it was 80.6 µM; in assay [3] it was 29.5 µM; in assay [4] it was 33.9 µM; in [5], 33 µM; in assay [10], over 100 µM. The results for the TGI in assay [6], in [7] and in [8] were 60.5 µM, over 100 µM and 35.7 µM, respectively.

For the compound `Oc1ccccc1Nc1nc2ccccc2c2occc12`, the GI50 in assay [1] was 14.5 µM; in assay [2], 3.9 µM; in [3], 14.3 µM; in assay [4] it was 5.73 µM; in [5], 0.0614 µM; in assay [10] it was 12.5 µM. Further, the GI50 in [6] was 2.43 µM; in assay [7], 12.6 µM; in [8], 6.1 µM. The TGI was 27.5 µM in assay [1]; 17 µM in [2]; 27.4 µM in assay [3]; 19.5 µM in assay [4]; 15.8 µM in [5]; 50.7 µM in assay [10]. Moreover, the TGI stood at 9.39 µM in assay [6], 25.1 µM in assay [7] and 19.4 µM in assay [8].

With `Cc1cc(Cl)ccc1NC(=O)CC1SC(N)=NC1=O` (stereo unspecified), the TGI in [1], in [2], in assay [9], in assay [5], in assay [10] and in [6] was over 100 µM in each case. The TGI in assay [7] and in [8] was over 100 µM in each case.

Consider `CN1C(=O)c2cc([N+](=O)[O-])ccc2[C@H]2C(=O)c3cc4c(cc3[C@H]21)OCO4`, for which the GI50 in assay [1] is 0.115 µM; in assay [2], 0.0134 µM; in assay [3], 0.0141 µM; in assay [4], 1.49 µM; in assay [5] it was 0.153 µM; in assay [10] it was 0.337 µM. Besides, the GI50 is 0.0161 µM in assay [6], 0.299 µM in [7] and 0.0534 µM in [8]. Also, the TGI in [1] came out at 1.88 µM; in assay [2], 0.0463 µM; in [3], 0.128 µM; in assay [5] it was 12 µM; in assay [6] it was 0.155 µM; in [7], 0.926 µM. Further, the TGI in [8] was found to be 0.176 µM.

`Cc1ccc(NC(=O)COC(=O)c2cccc3c(=O)c4ccccc4[nH]c23)cc1`: the TGI in assay [1], in assay [2], in assay [3], in assay [4], in assay [5] and in assay [10] was over 100 µM throughout. For the same compound, the TGI is 60 µM in [6] and over 100 µM in assay [8].

Consider `CC1C=CC(C)C2(O)C(=O)NC(O)C12` (stereo unspecified), for which the TGI in [1], in assay [2], in [9], in [3], in assay [5] and in [10] was over 100 µM in each case. This compound also had a TGI in assay [8] of over 100 µM.

On to `Cc1cc(NS(=O)(=O)c2ccc(NC(=O)c3cccc4cc5ccccc5nc34)cc2)no1`, for which the TGI in assay [1] is 56.2 µM; in [2], 29.8 µM; in assay [9] it was 54.3 µM; in assay [3] it was 19.6 µM; in [5], 64.8 µM; in assay [10], 40.7 µM. Besides, the TGI in assay [7] turned out to be 57.3 µM; in assay [8] it was 30.3 µM.

With `Cc1[nH]n(-c2ccc(S(=O)(=O)O)cc2)c(=O)c1N=Nc1ccccc1`, the TGI in [1], in [2], in assay [3], in [4], in [5] and in [10] was over 100 µM throughout. The TGI in assay [6], in assay [7] and in assay [8] was over 100 µM each time.

With `Cc1ccc(/C=C/C(=O)c2ccc(N)cc2)c(C)c1`, the GI50 in assay [1] was 17.6 µM; in assay [2], 1.77 µM; in assay [3] it was 1.91 µM; in [4], 1.96 µM; in [5], 1.41 µM; in assay [10] it was 4.38 µM. Besides, the GI50 in [6] is 0.321 µM; in [7], 7.32 µM; in [8], 9.47 µM. The TGI was 37.5 µM in assay [1]; 3.2 µM in assay [2]; 3.76 µM in assay [3]; 4.43 µM in assay [4]; 3.08 µM in assay [5]; 16.8 µM in [10]. Further, the TGI in assay [6] was 1.18 µM; in assay [7] it was 27.9 µM; in assay [8] it was 21.6 µM.

Consider `COc1ccc(NC(=O)COC(=O)c2cccc3c(=O)c4ccccc4[nH]c23)cc1`, for which the TGI worked out at 53.2 µM in assay [1]; 45.6 µM in assay [2]; 28 µM in [9]; 25.5 µM in assay [3]; 58.9 µM in assay [4]; 91.3 µM in [5]. The TGI was 30.7 µM in assay [10], 28.3 µM in assay [6] and 30.1 µM in assay [8].

As to `CCCC(=O)Nc1cc([N+](=O)[O-])c([N+](=O)[O-])cc1OC`, the TGI in assay [1] is 29.8 µM; in assay [2] it was 26.5 µM; in assay [9], 51.4 µM; in assay [3] it was 32.3 µM; in [5], 38.9 µM; in assay [10], 27.2 µM. The TGI in assay [6] is over 100 µM; in assay [7] it was over 100 µM; in assay [8], 30.2 µM.

With `S=P1(c2ccccc2)Nc2ccc(Cl)cc2N1` (stereo unspecified), the TGI in assay [1] is over 100 µM; in assay [2], over 100 µM; in assay [9], over 100 µM; in assay [4], 71.9 µM; in [5] it was over 100 µM; in assay [10], over 100 µM. The TGI in assay [6], in [7] and in assay [8] was over 100 µM each time.

For the compound `COC(=O)c1oc2c(O)c(OC)c(Br)cc2c1C`, the GI50 in [1] was 25 µM; in assay [2] it was 20.2 µM; in assay [9] it was 25 µM; in [5], 32.7 µM; in assay [10], 21.2 µM; in assay [6] it was 23.5 µM. Also, the GI50 in [8] is 22.2 µM. Further, the TGI in assay [1] came out at 74.1 µM; in assay [2] it was 36.2 µM; in [9], 67.6 µM; in assay [5] it was 91.6 µM; in [10], 47.6 µM; in assay [6], 39.2 µM. The compound further had a TGI in [8] of 43.5 µM.

With `CN(C)c1ccc(/C=C/c2ccnc3ccccc23)cc1N`, the TGI is 32.6 µM in [1]; 24.1 µM in [2]; over 100 µM in [9]; 5.87 µM in [4]; 65.4 µM in assay [10]; 32.6 µM in assay [6]. Also, the TGI in assay [7] is 31.2 µM; in assay [8], 11.5 µM.

`N#CCC12CC=CCC1=C(O)C(=O)c1ccc(O)cc12` (stereo unspecified): the TGI in [1], in [2], in [9], in assay [3], in [5] and in [10] was over 100 µM in each case. Moreover, the TGI in assay [6], in assay [7] and in assay [8] was over 100 µM each time.

In the case of `O=C1CSC(=S)N1Cc1cccnc1`, the GI50 in assay [1] was 23.9 µM; in assay [2], 6.14 µM; in assay [9], 4.37 µM; in [3] it was 3.36 µM; in assay [5], 4.4 µM; in assay [10], 2.22 µM. The GI50 in assay [6] is 2.58 µM; in assay [7], 13.2 µM; in assay [8], 24.5 µM. For the same compound, the TGI in [1] came out at 58.9 µM; in [2], 19.5 µM; in assay [9] it was 86.2 µM; in [3] it was 11 µM; in [5], 19 µM; in assay [10], 5.21 µM. The results for the TGI in [6], in assay [7] and in [8] were 12.5 µM, 26.8 µM and 71.6 µM, respectively.

On to `CCCCCCCCCCCCSC(=NC)NC`, for which the GI50 in [1] is 2.12 µM; in assay [2], 1.73 µM; in assay [9], 2.63 µM; in assay [4] it was 1.39 µM; in [5], 2.52 µM; in assay [7] it was 1.83 µM. Also, the GI50 in assay [8] is 1.48 µM. The TGI in [1] came to 4.76 µM; in [2], 3.35 µM; in assay [9], 9.97 µM; in assay [4], 5.49 µM; in assay [5] it was 5.83 µM; in [7], 4.16 µM. The compound further displayed a TGI in [8] of 2.85 µM.

Take `C=CCC12CC(=O)C=C1CCC1(C2)OCCO1` (stereo unspecified): the TGI in assay [1], in assay [2], in assay [9], in assay [3], in [5] and in assay [10] was over 100 µM throughout. This compound had a TGI in assay [8] of over 100 µM.

As to `Cc1nc(N)sc1N=Nc1cc(Cl)c([N+](=O)[O-])cc1Cl`, the TGI is 31.5 µM in assay [1]; 55.9 µM in [2]; 35 µM in [9]; over 100 µM in assay [3]; 47.2 µM in [5]; 37.7 µM in assay [10]. The TGI in assay [6] was 36.8 µM; in [7], 84.6 µM; in assay [8], 19.4 µM.

On to `COc1ccc(/C(=N\O)c2cc(OC)c(OC)c(OC)c2)c(OC)c1N`, for which the GI50 was 6.26 µM in assay [1]; 7.68 µM in assay [2]; 3.54 µM in assay [9]; 2.82 µM in [3]; over 100 µM in [4]; 6.83 µM in [5]. In addition, the GI50 in assay [10] is 2.11 µM; in assay [6], 5.38 µM; in [8], 5.32 µM. Also, the TGI in [1], in assay [2], in assay [9], in assay [3], in assay [4] and in assay [5] was over 100 µM each time. The TGI in assay [10], in assay [6] and in assay [8] was over 100 µM each time.

Regarding `COC(=O)c1cc2c3ccccc3n3c(=O)c4cc5cc(OC)c(N(S(=O)(=O)c6ccc(C)cc6)S(=O)(=O)c6ccc(C)cc6)cc5nc4c(n1)c23`, the GI50 in assay [1] is over 100 µM; in [2], 6.03 µM; in [3], 13.5 µM; in assay [4], 4.42 µM; in assay [10], over 100 µM; in assay [6], 23.5 µM. For the same compound, the GI50 in assay [7] and in [8] was over 100 µM in each case. Also, the TGI in assay [1] was over 100 µM; in assay [2], 22.2 µM; in assay [3], 59.7 µM; in [4], 21.3 µM; in assay [10], over 100 µM; in [6] it was over 100 µM. Moreover, the TGI in [7] and in assay [8] was over 100 µM in each case.
